Results as given in ChEMBL document CHEMBL3085729, “Total synthesis of schizocommunin and revision of its structure” (J Nat Prod, 2013).

What was measured:
HeLa = assay: Antiproliferative activity against human HeLa cells after 48 hrs; type: functional, cell-based
A549 = assay: Antiproliferative activity against human A549 cells after 48 hrs; type: functional, cell-based; conditions: A549, 48 h

| Compound | IC50 (HeLa) [µM] | IC50 (A549) [µM] |
| --- | --- | --- |
| O=C1Nc2ccccc2/C1=C\c1n[nH]c2ccccc2c1=O | > 100 | > 100 |
| O=C1Nc2ccccc2/C1=C/c1nc2ccccc2c(=O)[nH]1 | 15.2 | > 100 |
| O=C1Nc2ccccc2/C1=C\c1nnc2ccccc2c1Cl | 7.8 | 93.3 |
| CC(=O)N1C(=O)/C(=C/c2nnc3ccccc3c2Cl)c2ccccc21 | 28.8 | > 100 |
| COc1c(/C=C2/C(=O)Nc3ccccc32)nnc2ccccc12 | 19.6 | > 100 |
